Test results reported in US7323118B2, “Composition of hypochlorous acid and its applications” (Aquilabs S.A., priority 2001, dated 2008).

Experiments:
Assay in all cases: Cultures and tests of inhibition (culture agar, Petri box)
Format in all cases: cell-based
Details in all cases: added to the culture agar; inhibition haloes in the Petri box
[1] = system: staphylococcus aureus
[2] = system: pseudomona
[3] = system: E. Coli

Measured: inhibition of growth

OCl [Hypochlorous acid]
full inhibition: all assays above
